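A five-concentration, 48-hour dose response in 96-well plates underlies each endpoint, interpolated linearly between surrounding concentrations. At the GI50, growth is halved.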 Calls of active or inactive are those of the source. Rule as the data show it: active = GI50 up to about 1.1 µM and inactive = higher. Where a SMILES comes first, the peptide text is derived from it. [ ]: non-standard residue; d: D form. The star is where a group is joined. NMeF = CN[C@@H](Cc1ccccc1)C(=O)O; NMeV = CN[C@H](C(=O)O)C(C)C; Boc = CC(C)(C)OC(=O)*; OBn = c1ccc(CO*)cc1
How the values were obtained:
Test in all cases: NCI tumour cell line growth inhibition, 48 h
DLD-1 = test system: DLD-1
DMS-114 = test system: DMS-114
DMS-273 = test system: DMS-273
HOP-18 = test system: HOP-18
LXFL 529 = test system: LXFL 529
M19-MEL = test system: M19-MEL
SNB-78 = test system: SNB-78
XF498 = test system: XF498
RXF 631 = test system: RXF 631

Compound | GI50 (DLD-1) | GI50 (DMS-114) | GI50 (DMS-273) | GI50 (HOP-18) | GI50 (LXFL 529) | GI50 (M19-MEL) | GI50 (SNB-78) | GI50 (XF498) | GI50 (RXF 631)
CC(C)(Oc1ccc(C(=O)c2ccc(Cl)cc2)cc1Cl)C(=O)Nc1c(Cl)cccc1Cl | > 100 µM (inactive) | 8.75 µM (inactive) | > 100 µM (inactive) | > 100 µM (inactive) | > 100 µM (inactive) | > 100 µM (inactive) | > 100 µM (inactive) | > 100 µM (inactive) | 
Cc1ccc(C)c2c1C1CCCCC3(OCCCO3)C21O (configuration not stated) | > 100 µM (inactive) | 80 µM (inactive) | > 100 µM (inactive) | 17.1 µM (inactive) | > 100 µM (inactive) | > 100 µM (inactive) | > 100 µM (inactive) |  | 
CN(C)C(=S)NC(=S)Nc1ccc2ccccc2c1 |  |  | 1.67 µM (inactive) |  | 2.07 µM (inactive) |  | 23.7 µM (inactive) | 16.1 µM (inactive) | 
CCCCCC(=O)OC[n+]1ccc2c(C)c3[nH]c4ccccc4c3c(C)c2c1 | 0.45 µM (active) | 1.02 µM (active) | 0.141 µM (active) |  | 1.02 µM (active) | 1.02 µM (active) | 0.995 µM (active) |  | 0.408 µM (active)
CN(C)CCN(C)CCC(=O)/C=C/c1ccccc1 | 19.5 µM (inactive) | 30.2 µM (inactive) | 17.4 µM (inactive) | > 100 µM (inactive) | 17.7 µM (inactive) | 20.2 µM (inactive) | 31 µM (inactive) | 22.2 µM (inactive) | 
CN(C)C(=O)Oc1c(-c2ccccc2)c(=O)n2c3ccccc3n3c(=O)n(C)c(=O)c1c23 | > 100 µM (inactive) | > 100 µM (inactive) | > 100 µM (inactive) | > 100 µM (inactive) | > 100 µM (inactive) | > 100 µM (inactive) | > 100 µM (inactive) | > 100 µM (inactive) | > 100 µM (inactive)
O=C(CCN1CCCCC1)Nc1ccc2c(c1)C(=O)c1ccc(NC(=O)CCN3CCCCC3)cc1C2=O | 2.92 µM (inactive) | 17.6 µM (inactive) | 1.71 µM (inactive) | 17 µM (inactive) | 1.88 µM (inactive) | 43.1 µM (inactive) | 15.3 µM (inactive) |  | 
Cc1cc(N(CCC#N)CCC#N)ccc1CC1N=C(c2ccccc2)OC1=O (configuration not stated) | > 100 µM (inactive) | > 100 µM (inactive) | > 100 µM (inactive) |  | > 100 µM (inactive) | > 100 µM (inactive) |  | > 100 µM (inactive) | > 100 µM (inactive)
Cc1c(C(=O)CC(=O)C(=O)Nc2cccc(C(F)(F)F)c2)[n+]([O-])c2ccccc2[n+]1[O-] |  | 1.92 µM (inactive) | 3.41 µM (inactive) | 11.2 µM (inactive) | 4.02 µM (inactive) | 1.82 µM (inactive) | 6.79 µM (inactive) |  | 2.84 µM (inactive)
Cn1c2c(c3ccccc31)C1CCCCCCC1C1C(=O)OC(=O)C21 (configuration not stated) | 33.6 µM (inactive) | 29.1 µM (inactive) | 20 µM (inactive) | > 100 µM (inactive) | 39.7 µM (inactive) | 37.4 µM (inactive) | > 100 µM (inactive) | 43.6 µM (inactive) | 33.3 µM (inactive)
CC(=O)OC(C)(C)[C@@H]1CC[C@]2(C)/C=C/[C@H](C)C[C@@H](O)C3=C(C)C[C@@H](O3)C12 (some centres not stated) | > 100 µM (inactive) | > 100 µM (inactive) | > 100 µM (inactive) | > 100 µM (inactive) | > 100 µM (inactive) | > 100 µM (inactive) | > 100 µM (inactive) |  | > 100 µM (inactive)
COc1ccc(CNc2cnc3ccc(N)cc3n2)cc1OC | > 100 µM (inactive) | 47.3 µM (inactive) | 41.3 µM (inactive) | 0.548 µM (active) |  | 64.3 µM (inactive) | > 100 µM (inactive) | > 100 µM (inactive) | 
CN(CCS(=O)(=O)N1C(=O)C2CCCN2C(=O)[C@@H]1Cc1ccccc1)C(=O)OCc1ccccc1 (some centres not stated) | > 100 µM (inactive) | 59.6 µM (inactive) |  | > 100 µM (inactive) | 45.4 µM (inactive) | 62.1 µM (inactive) | 92.7 µM (inactive) |  | 56.2 µM (inactive)
C=CCC(N(C)C(=O)[C@H](Cc1ccccc1)NC(=O)OCc1ccccc1)P(=O)(Oc1ccccc1)Oc1ccccc1 (some centres not stated) | > 100 µM (inactive) | 5.62 µM (inactive) | > 100 µM (inactive) |  | 6.79 µM (inactive) | > 100 µM (inactive) | > 100 µM (inactive) | > 100 µM (inactive) | 
N#CCCN(C1=NN(C(=O)CC(=O)Nc2ccc(Cl)cc2)C(c2ccccc2)C1)c1ccc(Cl)cc1 (configuration not stated) | > 100 µM (inactive) | > 100 µM (inactive) | > 100 µM (inactive) | > 100 µM (inactive) | > 100 µM (inactive) | > 100 µM (inactive) | 40.4 µM (inactive) | > 100 µM (inactive) | > 100 µM (inactive)
CC1C(=O)O[C@H]2C1CC[C@@]1(C)[C@H](O)CC[C@@]13C[C@]2(O)OO3 (some centres not stated) | > 100 µM (inactive) | > 100 µM (inactive) | > 100 µM (inactive) | > 100 µM (inactive) | > 100 µM (inactive) | > 100 µM (inactive) |  |  | 
CN(C(=O)c1cccs1)C(=S)N1CCN(c2ccccn2)CC1 | > 100 µM (inactive) | > 100 µM (inactive) | > 100 µM (inactive) | > 100 µM (inactive) | > 100 µM (inactive) | > 100 µM (inactive) | > 100 µM (inactive) | > 100 µM (inactive) | 
Cc1cc(N(CCC#N)CCC#N)ccc1/C=C(\NC(=O)/C=C/c1ccccc1)C(=O)Nc1ccc(Cl)cc1 | 5.58 µM (inactive) | 1.62 µM (inactive) | 0.982 µM (active) | > 100 µM (inactive) | 0.0991 µM (active) | 0.944 µM (active) | > 100 µM (inactive) | > 100 µM (inactive) | > 100 µM (inactive)
O=C1CCCCCCCCCCC(=O)N2CCOCCOCCN1Cc1cccc(n1)C2 | > 100 µM (inactive) | > 100 µM (inactive) | > 100 µM (inactive) |  | > 100 µM (inactive) | > 100 µM (inactive) | > 100 µM (inactive) |  | > 100 µM (inactive)
OC12c3ccccc3C3CCC4(OCCO4)C3C1c1ccccc12 (configuration not stated) | > 100 µM (inactive) | 53.6 µM (inactive) | > 100 µM (inactive) | > 100 µM (inactive) | > 100 µM (inactive) | > 100 µM (inactive) | > 100 µM (inactive) |  | 
O=C(O)C1=C(C(=O)O)Oc2ccccc2O1 | > 100 µM (inactive) | > 100 µM (inactive) | > 100 µM (inactive) | > 100 µM (inactive) | > 100 µM (inactive) | > 100 µM (inactive) | > 100 µM (inactive) | > 100 µM (inactive) | 
C/C(=N\NC(=O)CC(=O)Nc1ccc(C)cc1)c1cc2ccccc2oc1=O | > 100 µM (inactive) | > 100 µM (inactive) | > 100 µM (inactive) | 68.2 µM (inactive) |  | > 100 µM (inactive) |  | 1.67 µM (inactive) | 
CC(C)[C@@H](C(=O)N1CCC[C@H]1C(=O)OCc1ccccc1)N(C)C(=O)[C@H](C(C)C)N(C)C(=O)[C@H](Cc1ccccc1)N(C)C(=O)[C@H](NC(=O)OC(C)(C)C)C(C)C (Boc-[dV][NMeF][NMeV][NMeV]P-OBn) | 25.4 µM (inactive) | 19.6 µM (inactive) | 24.3 µM (inactive) | > 100 µM (inactive) | 22.2 µM (inactive) |  |  |  | 
